Data: ChEMBL document CHEMBL1201861, “Genomics of Drug Sensitity in Cancer screening data, Wellcome Trust Sanger Institute”

Columns and labels:
Experiment in all cases: cells
CP50-MEL-B = assay type: functional, cell-based; conditions: Homo sapiens;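 further: growth inhibition of the human cell line, measured with a cell viability read-out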
Description: SANGER: Inhibition of human CP50-MEL-B cell growth in a cell viability assay.

DMS-79 = assay type: functional, cell-based, Homo sapiens; conditions: Homo sapiens, DMS-79;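 further: growth inhibition measured with a cell viability assay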
Description: SANGER: Inhibition of human DMS-79 cell growth in a cell viability assay.

EC-GI-10 = assay type: functional, cell-based, Homo sapiens; conditions: Homo sapiens, EC-GI-10
Description: SANGER: Inhibition of human EC-GI-10 cell growth in a cell viability assay.

EFO-27 = assay type: functional, cell-based; conditions: Homo sapiens;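 further: growth inhibition of EFO-27 cells, read out with a cell viability assay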
Description: SANGER: Inhibition of human EFO-27 cell growth in a cell viability assay.

FTC-133 = assay type: functional, cell-based; conditions: Homo sapiens
G-401 = assay type: functional, cell-based; conditions: Homo sapiens
Description: SANGER: Inhibition of human G-401 cell growth in a cell viability assay.

HCC1806 = assay type: functional, cell-based; conditions: Homo sapiens;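 further: growth inhibition of the cancer cell line, determined with a cell viability assay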
Description: SANGER: Inhibition of human HCC1806 cell growth in a cell viability assay.

HCC 2998 = assay type: functional, cell-based; conditions: Homo sapiens;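 further: growth inhibition of human HCC2998 cells, measured with a cell viability read-out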
Description: SANGER: Inhibition of human HCC2998 cell growth in a cell viability assay.

HCC70 = assay type: functional, cell-based; conditions: Homo sapiens;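 further: cell viability assay measuring how strongly the compound suppresses proliferation of HCC70 cells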
Description: SANGER: Inhibition of human HCC70 cell growth in a cell viability assay.

HT-1080 = assay type: functional, cell-based; conditions: Homo sapiens
Description: SANGER: Inhibition of human HT-1080 cell growth in a cell viability assay.

HT-3 = assay type: functional, cell-based; conditions: Homo sapiens;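 further: growth inhibition measured with a cell viability readout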
Description: SANGER: Inhibition of human HT-3 cell growth in a cell viability assay.

HT55 = assay type: functional, cell-based; conditions: Homo sapiens;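 further: cell viability readout measuring growth inhibition of human HT55 cells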
Description: SANGER: Inhibition of human HT55 cell growth in a cell viability assay.

KP-N-YN = assay type: functional, cell-based; conditions: Homo sapiens;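 further: growth inhibition of KP-N-YN cells, read out with a cell viability assay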
Description: SANGER: Inhibition of human KP-N-YN cell growth in a cell viability assay.

KYSE-70 cell line = assay type: functional, cell-based; conditions: Homo sapiens;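 further: cell viability assay read-out, with IC50 expressing suppression of KYSE-70 cell growth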
Description: SANGER: Inhibition of human KYSE-70 cell growth in a cell viability assay.

M059J = assay type: functional, cell-based; conditions: Homo sapiens;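 further: growth inhibition of M059J cells, read out with a cell viability assay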
Description: SANGER: Inhibition of human M059J cell growth in a cell viability assay.

MDA-MB-415 = assay type: functional, cell-based; conditions: Homo sapiens
MG-63 = assay type: functional, cell-based; conditions: Homo sapiens;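 further: growth inhibition of human MG-63 cells, read out with a cell viability assay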
Description: SANGER: Inhibition of human MG-63 cell growth in a cell viability assay.

MKN-45 = assay type: functional, cell-based; conditions: Homo sapiens;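 further: growth inhibition of human MKN-45 cells, measured with a cell viability assay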
Description: SANGER: Inhibition of human MKN45 cell growth in a cell viability assay.

NCI-H1623 = assay type: functional, cell-based; conditions: Homo sapiens;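 further: cell viability assay used as the read-out for growth inhibition of NCI-H1623 cells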
Description: SANGER: Inhibition of human NCI-H1623 cell growth in a cell viability assay.

NCI-H2052 = assay type: functional, cell-based; conditions: Homo sapiens;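 further: growth inhibition of NCI-H2052 cells, read out with a cell viability assay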
Description: SANGER: Inhibition of human NCI-H2052 cell growth in a cell viability assay.

NCI-H2452 = assay type: functional, cell-based; conditions: Homo sapiens;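 further: growth inhibition of NCI-H2452 cells, read out with a cell viability assay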
Description: SANGER: Inhibition of human NCI-H2452 cell growth in a cell viability assay.

NY = assay type: functional, cell-based; conditions: Homo sapiens
Description: SANGER: Inhibition of human NY cell growth in a cell viability assay.

PC-3 = assay type: functional, cell-based; conditions: Homo sapiens;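 further: cell viability assay measuring growth inhibition of PC-3 cells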
Description: SANGER: Inhibition of human PC-3 cell growth in a cell viability assay.

RMG-I = assay type: functional, cell-based; conditions: Homo sapiens;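 further: growth inhibition of human RMG-I cells, read out with a cell viability assay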
Description: SANGER: Inhibition of human RMG-I cell growth in a cell viability assay.

RPMI-7951 = assay type: functional, cell-based; conditions: Homo sapiens
Description: SANGER: Inhibition of human RPMI-7951 cell growth in a cell viability assay.

SBC-5 = assay type: functional, cell-based; conditions: Homo sapiens;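 further: cell viability assay read-out, IC50 is the concentration that inhibits growth of the cells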
Description: SANGER: Inhibition of human SBC-5 cell growth in a cell viability assay.

SK-MEL-24 = assay type: functional, cell-based; conditions: Homo sapiens;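 further: growth inhibition read out by a cell viability assay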
Description: SANGER: Inhibition of human SK-MEL-24 cell growth in a cell viability assay.

SW1417 = assay type: functional, cell-based; conditions: Homo sapiens;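 further: growth inhibition of human SW1417 cells, read out with a cell viability assay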
Description: SANGER: Inhibition of human SW1417 cell growth in a cell viability assay.

SW48 = assay type: functional, cell-based; conditions: Homo sapiens;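 further: growth inhibition of SW48 cells, read out with a cell viability assay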
Description: SANGER: Inhibition of human SW48 cell growth in a cell viability assay.

SiHa = assay type: functional, cell-based; conditions: Homo sapiens;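 further: Viability-based readout of growth inhibition in SiHa cells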
Description: SANGER: Inhibition of human SiHa cell growth in a cell viability assay.

T-24 = assay type: functional, cell-based; conditions: Homo sapiens;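 further: growth inhibition of T-24 cells, read out with a cell viability assay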
Description: SANGER: Inhibition of human T-24 cell growth in a cell viability assay.

23132-87 = assay type: functional, cell-based; conditions: Homo sapiens
Description: SANGER: Inhibition of human 23132-87 cell growth in a cell viability assay.

A 172 = assay type: functional, cell-based; conditions: Homo sapiens;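 further: growth inhibition of A172 cells, measured with a cell viability readout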
Description: SANGER: Inhibition of human A172 cell growth in a cell viability assay.

A-431 = assay type: functional, cell-based; conditions: Homo sapiens;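 further: growth inhibition of A-431 cells, determined with a cell viability read-out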
Description: SANGER: Inhibition of human A431 cell growth in a cell viability assay.

AGS = assay type: functional, cell-based; conditions: Homo sapiens;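 further: growth inhibition of AGS cells, determined with a cell viability assay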
Description: SANGER: Inhibition of human AGS cell growth in a cell viability assay.

ASPC1 = assay type: functional, cell-based; conditions: Homo sapiens;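 further: growth inhibition of AsPC-1 cells, read out with a cell viability assay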
Description: SANGER: Inhibition of human AsPC-1 cell growth in a cell viability assay.

CAL-12T = assay type: functional, cell-based; conditions: Homo sapiens;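 further: growth inhibition of human CAL-12T cells, read out with a cell viability assay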
Description: SANGER: Inhibition of human CAL-12T cell growth in a cell viability assay.

CAL-62 = assay type: functional, cell-based; conditions: Homo sapiens;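 further: growth inhibition of CAL-62 cells, read out with a cell viability assay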
Description: SANGER: Inhibition of human CAL-62 cell growth in a cell viability assay.

TYK-nu = assay type: functional, cell-based; conditions: Homo sapiens;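 further: growth inhibition of human TYK-nu cells, read out by a cell viability assay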
Description: SANGER: Inhibition of human TYK-nu cell growth in a cell viability assay.

U-251 = assay type: functional, cell-based; conditions: Homo sapiens;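 further: growth inhibition of human U-251 cells, read out through a cell viability assay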
Description: SANGER: Inhibition of human U251 cell growth in a cell viability assay.

For CN(NC(=O)CC(=O)NN(C)C(=S)c1ccccc1)C(=S)c1ccccc1 [ELESCLOMOL], the IC50 (CP50-MEL-B) was 8.63 nM, the IC50 (DMS-79) was over 200 nM and the IC50 (EC-GI-10) was 44.6 nM. For the same molecule, the IC50 (EFO-27) was 7.72 nM, the IC50 (FTC-133) was 27 nM and the IC50 (G-401) was 5.43 nM. It also gave an IC50 (HCC1806) of 23.5 nM, an IC50 (HCC 2998) of 111 nM and an IC50 (HCC70) of 53.1 nM. The IC50 (HT-1080) was 4.99 nM, the IC50 (HT-3) was over 200 nM and the IC50 (HT55) was over 200 nM. The IC50 (KP-N-YN) was 65.6 nM, the IC50 (KYSE-70 cell line) was 54 nM and the IC50 (M059J) was 20.6 nM. The IC50 (MDA-MB-415) was 137 nM, the IC50 (MG-63) was over 200 nM and the IC50 (MKN-45) was 28.7 nM. For the same molecule, the IC50 (NCI-H1623) was 179 nM, the IC50 (NCI-H2052) was 63.3 nM and the IC50 (NCI-H2452) was 21.7 nM. For the same molecule, the IC50 (NY) was 37.6 nM, the IC50 (PC-3) was 7.89 nM and the IC50 (RMG-I) was over 200 nM. For the same molecule, the IC50 (RPMI-7951) was 36.6 nM, the IC50 (SBC-5) was 21.6 nM and the IC50 (SK-MEL-24) was over 200 nM. For the same molecule, the IC50 (SW1417) was over 200 nM, the IC50 (SW48) was 108 nM and the IC50 (SiHa) was 31.1 nM. The IC50 (T-24) was 1.55 nM, the IC50 (23132-87) was 24.9 nM and the IC50 (A 172) was 20.9 nM. The IC50 (A-431) was 126 nM, the IC50 (AGS) was 2.86 nM and the IC50 (ASPC1) was 37.7 nM. It also gave an IC50 (CAL-12T) of 63 nM, an IC50 (CAL-62) of 55.2 nM and an IC50 (TYK-nu) of 12.4 nM. It also gave an IC50 (U-251) of 9.86 nM.
In the case of CC1=C(/C=C/C(C)=C/C=C/C(C)=C/C(=O)O)C(C)(C)CCC1 [TRETINOIN], the IC50 (CP50-MEL-B) is reported as over 10000 nM, the IC50 (DMS-79) is reported as over 10000 nM and the IC50 (EC-GI-10) is reported as over 10000 nM. The IC50 (EFO-27) was over 10000 nM, the IC50 (FTC-133) was over 10000 nM and the IC50 (G-401) was over 10000 nM. It also gave an IC50 (HCC1806) of 729 nM, an IC50 (HCC 2998) of over 10000 nM and an IC50 (HCC70) of over 10000 nM. The IC50 (HT-1080) was over 10000 nM, the IC50 (HT-3) was over 10000 nM and the IC50 (HT55) was over 10000 nM. For the same molecule, the IC50 (KP-N-YN) was over 10000 nM, the IC50 (KYSE-70 cell line) was over 10000 nM and the IC50 (M059J) was over 10000 nM. It also gave an IC50 (MDA-MB-415) of over 10000 nM, an IC50 (MG-63) of over 10000 nM and an IC50 (MKN-45) of over 10000 nM. The IC50 (NCI-H1623) was over 10000 nM, the IC50 (NCI-H2052) was over 10000 nM and the IC50 (NCI-H2452) was over 10000 nM. The IC50 (NY) was over 10000 nM, the IC50 (PC-3) was over 10000 nM and the IC50 (RMG-I) was over 10000 nM. For the same molecule, the IC50 (RPMI-7951) was over 10000 nM, the IC50 (SBC-5) was over 10000 nM and the IC50 (SK-MEL-24) was over 10000 nM. The IC50 (SW1417) was over 10000 nM, the IC50 (SW48) was over 10000 nM and the IC50 (SiHa) was over 10000 nM. It also gave an IC50 (T-24) of over 10000 nM, an IC50 (23132-87) of over 10000 nM and an IC50 (A 172) of over 10000 nM. The IC50 (A-431) was over 10000 nM, the IC50 (AGS) was over 10000 nM and the IC50 (ASPC1) was over 10000 nM. For the same molecule, the IC50 (CAL-12T) was over 10000 nM, the IC50 (CAL-62) was over 10000 nM and the IC50 (TYK-nu) was over 10000 nM. For the same molecule, the IC50 (U-251) was over 10000 nM.
In the case of NC(=O)c1ccc(N(C(N)=O)c2c(F)cccc2F)nc1-c1ccc(F)cc1F [VX-702], the IC50 (CP50-MEL-B) is reported as over 2000 nM, the IC50 (DMS-79) is reported as over 2000 nM and the IC50 (EC-GI-10) is reported as over 2000 nM. It also gave an IC50 (EFO-27) of over 2000 nM, an IC50 (FTC-133) of over 2000 nM and an IC50 (G-401) of over 2000 nM. For the same molecule, the IC50 (HCC1806) was over 2000 nM, the IC50 (HCC 2998) was over 2000 nM and the IC50 (HCC70) was over 2000 nM. It also gave an IC50 (HT-1080) of over 2000 nM, an IC50 (HT-3) of over 2000 nM and an IC50 (HT55) of over 2000 nM. It also gave an IC50 (KP-N-YN) of over 2000 nM, an IC50 (KYSE-70 cell line) of over 2000 nM and an IC50 (M059J) of over 2000 nM. It also gave an IC50 (MDA-MB-415) of over 2000 nM, an IC50 (MG-63) of over 2000 nM and an IC50 (MKN-45) of over 2000 nM. For the same molecule, the IC50 (NCI-H1623) was over 2000 nM, the IC50 (NCI-H2052) was over 2000 nM and the IC50 (NCI-H2452) was over 2000 nM. It also gave an IC50 (NY) of over 2000 nM, an IC50 (PC-3) of over 2000 nM and an IC50 (RMG-I) of over 2000 nM. It also gave an IC50 (RPMI-7951) of over 2000 nM, an IC50 (SBC-5) of over 2000 nM and an IC50 (SK-MEL-24) of over 2000 nM. For the same molecule, the IC50 (SW1417) was over 2000 nM, the IC50 (SW48) was over 2000 nM and the IC50 (SiHa) was over 2000 nM. The IC50 (T-24) was over 2000 nM, the IC50 (23132-87) was over 2000 nM and the IC50 (A 172) was over 2000 nM. The IC50 (A-431) was over 2000 nM, the IC50 (AGS) was 153 nM and the IC50 (ASPC1) was over 2000 nM. The IC50 (CAL-12T) was over 2000 nM, the IC50 (CAL-62) was over 2000 nM and the IC50 (TYK-nu) was over 2000 nM. The IC50 (U-251) was over 2000 nM.
